Experimental data taken from US5081152A, “Azulene derivatives as thromboxane A2 and prostaglandin endoperoxide receptor antagonist” (Kotobuki Seiyaku Co., Ltd., priority 1989, dated 1992).
Values belong to the compound of their own block, whether it stands above or below them.

Molecular target: T1, Thromboxane A2 receptor (Rattus norvegicus, UniProt P34978)
T1 sequence (P34978 1-341): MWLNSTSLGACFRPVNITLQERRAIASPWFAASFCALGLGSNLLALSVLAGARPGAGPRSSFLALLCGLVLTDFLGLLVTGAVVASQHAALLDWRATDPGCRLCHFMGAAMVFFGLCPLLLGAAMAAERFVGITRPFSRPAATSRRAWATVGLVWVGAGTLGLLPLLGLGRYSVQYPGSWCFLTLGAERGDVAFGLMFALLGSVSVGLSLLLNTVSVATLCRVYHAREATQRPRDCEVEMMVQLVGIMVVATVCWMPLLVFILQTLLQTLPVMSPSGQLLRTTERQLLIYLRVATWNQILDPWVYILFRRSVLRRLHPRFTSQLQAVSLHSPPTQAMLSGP
Assay: Thromboxane A2 receptor antagonistic action (inhibitory action of U-46619-induced contractions of rat aortic strips)
Assay type: cell-based
Conditions: isolated helical strips of rat aorta precontracted with 3×10^-8 M U-46619; read-out: IC50 (the concentrations which inhibited the contraction by 50%)

Compound: O=C(O)c1cc(CCNS(=O)(=O)c2ccccc2)c2cccccc1-2 [Compound 1, 3-[2-(Benzenesulfonylamino)ethyl]-azulene-1-carboxylic acid]
IC50: 21000 nM

Compound: O=C(O)c1cc(CCCCNS(=O)(=O)c2ccccc2)c2cccccc1-2 [Compound 3, 3-[4-(Benzenesulfonylamino)butyl]-azulene-1-carboxylic acid]
IC50: 570 nM

Compound: O=C(O)c1cc(CCCCCCNS(=O)(=O)c2ccccc2)c2cccccc1-2 [Compound 5, 3-[6-(Benzenesulfonylamino)hexyl]-azulene-1-carboxylic acid]
IC50: 140 nM

Compound: O=C(O)c1cc(CCCCCCCCNS(=O)(=O)c2ccccc2)c2cccccc1-2 [Compound 7, 3-[8-(Benzenesulfonylamino)octyl]-azulene-1-carbaxylic acid]
IC50: 15000 nM

Compound: CC(C)c1cccc2c(CCCCNS(=O)(=O)c3ccccc3)cc(C(=O)O)c-2c1 [Compound 10, 7-Isopropyl-3-[4-(benzenesulfonylamino)butyl]-azulene-1-carboxylic acid]
IC50: 3100 nM

Compound: CC(C)c1cccc2c(CCCCCCNS(=O)(=O)c3ccccc3)cc(C(=O)O)c-2c1 [Compound 12, 7-Isopropyl-3-[6-(benzenesulfonylamino)hexyl]-azulene-1-carboxylic acid]
IC50: 920 nM

Compound: CC(C)c1cccc2c(CCNS(=O)(=O)c3ccccc3)cc(C=CC(=O)O)c-2c1 [Compound 14, 3-[7-Isopropyl-3-(2-(benzenesulfonylamino)ethyl)-azulene-1-yl]-2-propenoicacid]
IC50: 21000 nM

Compound: CC(C)c1ccc2c(CCNS(=O)(=O)c3ccccc3)cc(C(=O)O)c-2cc1 [Compound 15, 6-Isopropyl-3-[2-(benzenesulfonylamino)ethyl]-azulene-1-carboxylic acid]
IC50: 60000 nM

Next, values leading:

IC50: 78 nM
Compound: CC(C)c1ccc2c(CCCCNS(=O)(=O)c3ccccc3)cc(C(=O)O)c-2cc1 [Compound 17, 6-Isopropyl-3-[4-(benzenesulfonylamino)butyl]-azulene-1-carboxylic acid]

IC50: 70 nM
Compound: CC(C)c1ccc2c(CCCCCCNS(=O)(=O)c3ccccc3)cc(C(=O)O)c-2cc1 [Compound 19, 6-Isopropyl-3-[6-(benzenesulfonylamino)hexyl]-azulene-1-carboxylic acid]

IC50: 20 nM
Compound: Cc1ccc(S(=O)(=O)NCCCCc2cc(C(=O)O)c3ccc(C(C)C)ccc2-3)cc1 [Compound 22, 6-Isopropyl-3-[4-(4-methylbenzenesulfonylamino)butyl]-azulene-1-carboxylicacid]

IC50: 16 nM
Compound: COc1ccc(S(=O)(=O)NCCCCc2cc(C(=O)O)c3ccc(C(C)C)ccc2-3)cc1 [Compound 23, 6-Isopropyl-3-[4-(4-methoxybenzenesulfonylamino)butyl]-azulene-1-carboxylic acid]

IC50: 11 nM
Compound: CC(C)c1ccc2c(CCCCNS(=O)(=O)c3ccc(F)cc3)cc(C(=O)O)c-2cc1 [Compound 24, 6-Isopropyl-3-[4-(4-fluorobenzenesulfonylamino)butyl]-azulene-1-carboxylicacid]

IC50: 5.3 nM
Compound: CC(C)c1ccc2c(CCCCNS(=O)(=O)c3ccc(Cl)cc3)cc(C(=O)O)c-2cc1 [Compound 25, 6-Isopropyl-3-[4-(4-chlorobenzenesulfonylamino)butyl]-azulene-1-carboxylicacid]

IC50: 43 nM
Compound: CC(C)c1ccc2c(CCCCNS(=O)(=O)c3ccc(Cl)c(Cl)c3)cc(C(=O)O)c-2cc1 [Compound 26, 6-Isopropyl-3-[4-(3,4-dichlorobenzenesulfonylamino)butyl]-azulene-1-carboxylic acid]

IC50: 5.3 nM
Compound: CC(C)c1ccc2c(CCCCNS(=O)(=O)c3ccc(Br)cc3)cc(C(=O)O)c-2cc1 [Compound 27, 6-Isopropyl-3-[4-(4-bromobenzenesulfonylamino)butyl]-azulene-1-carboxylic acid]

IC50: 5.1 nM
Compound: CC(C)c1ccc2c(CCCCNS(=O)(=O)c3ccc(I)cc3)cc(C(=O)O)c-2cc1 [Compound 28, 6-Isopropyl-3-[4-(4-iodobenzenesulfonylamino)butyl]-azulene-1-carboxylic acid]
